The SangsterLogP compilation
Values belong to the molecule of their own block, whether it stands above or below them.

Key:
[1] = method code SF-AS, from Hansch, C., Leo, A., & Hoekman, D. (1995). Exploring QSAR: hydrophobic, electronic, and steric constants (Vol. 2). Washington, DC: American Chemical Society.
[2] = method code G, from Hansch, C., Leo, A., & Hoekman, D. (1995). Exploring QSAR: hydrophobic, electronic, and steric constants (Vol. 2). Washington, DC: American Chemical Society.
[3] = method code SF-HPLC, from Hansch, C., Leo, A., & Hoekman, D. (1995). Exploring QSAR: hydrophobic, electronic, and steric constants (Vol. 2). Washington, DC: American Chemical Society.; settings: pH 7.4
[4] = not given; remark: listed apart in the source

Compound: CC(C)(C)c1ccc2c(c1)OCCOCCOCCOCCOc1cc(C(C)(C)C)ccc1OCCOCCOCCOCCO2
logP [1]: 3.32

Compound: CC(=O)c1c(C)n(C)c2ccccc12
logP: 2.03

Compound: N#CC(C#N)=NNc1cccc(Cl)c1Cl
logD ([1]; pH 7.2): 3.85

Compound: N#CC(C#N)=NNc1ccccc1Br
logD ([1]; pH 7.2): 3.11

Compound: CCc1c(C)[nH]c2c1C(=O)C1CN(C)CCC1C2 (stereo not given)
logP: 1.78

Compound: O=C(O)Cc1c[nH]c2ccc(O)cc12
logP: 1.17

Compound: CCN1CCCC1CNC(=O)c1cc(N(C)S(C)(=O)=O)ccc1OC (stereo not given)
logP: 2.29

Compound: CC1=NN(CCOc2ccc3ccccc3c2)C(=O)C1
logD ([1]; pH 6.4): 2.74

Compound: CNc1nc(Cl)c(SC)c(N2CCN(C)CC2)n1
logP: 2.99

Compound: CC(=O)c1ccc2c(c1)OCCOCCOCCOCCOCCO2
logP [1]: -0.05

Compound: CCN1CCCC1CNC(=O)c1cc(N(C)S(C)(=O)=O)c(Cl)cc1OC (stereo not given)
logP: 2.62

Compound: C#CCNS(=O)(=O)c1ccc(OC)c(C(=O)NCC2CCCN2CC)c1 (stereo not given)
logP: 2.42

Compound: COc1cc(Cc2cnc(N)nc2N)cc(Br)c1OC
logP: 2.23

Compound: N#CC(C#N)=NNc1ccccc1C(F)(F)F
logD ([1]; pH 7.2): 4.2

Compound: C#CC(C)(C)NS(=O)(=O)c1ccc(OC)c(C(=O)NCC2CCCN2CC)c1 (stereo not given)
logP: 2.8

Compound: CCC(=O)C(Cc1ccccc1)S(=O)(=O)c1ccc(C)cc1 (stereo not given)
logP [2]: 2.45

Compound: CCC(=O)C(Cc1ccc(C)cc1)S(=O)(=O)c1ccccc1 (stereo not given)
logP [2]: 2.7

Compound: c1ccc(Cn2ncnn2)cc1
logP: 1.03

Compound: CC(C)=CC1C(C(=O)OCc2ccc(C)cc2C)C1(C)C (stereo not given)
logP: 4.5

Compound: C1=Cc2ccc3c4c(ccc(c24)C1)-c1ccccc1-3
logP: 5.78

Compound: c1ccc(Cn2cnnn2)cc1
logP: 1.36

Compound: O=C(NP(=O)(N1CC1)N1CC1)c1ccccc1I
logD ([1]; pH 7.4): 1.05

Compound: Cc1ccccc1NN=C(C#N)C#N
logD ([1]; pH 7.2): 2.38

Compound: CN1C(C(=O)Nc2ccccn2)=C(O)c2sc(Cl)cc2S1(=O)=O
logP: 2.62

Compound: CCN1CCC[C@H]1CNC(=O)c1cc(I)ccc1OC
logP: 3.23

Compound: COc1ccc2cc(C(C)C(=O)OC(O)C(=O)N(C)CCO)ccc2c1 (stereo not given)
logD [3]: 2.01

Compound: CCC(=O)C(Cc1ccccc1)S(=O)(=O)c1ccccc1 (stereo not given)
logP [2]: 1.82

Compound: Cc1ccc(NN=C(C#N)C#N)c([N+](=O)[O-])c1
logD ([1]; pH 7.2): 2.5

Compound: CCCN1CCCC1CNC(=O)c1cc(S(N)(=O)=O)ccc1OC (stereo not given)
logP: 2.06

Compound: O=C(NP(=O)(N1CC1)N1CC1)c1ccc(Br)cc1
logD ([1]; pH 7.4): 0.97

Compound: CCN1CCCC1CNC(=O)c1cc(NS(N)(=O)=O)ccc1OC (stereo not given)
logP: 2.02

Compound: CCc1cccc2c1OCCOCCOCCOCCOCCO2
logP [1]: 0.98

Compound: Cc1ccccc1COC1CC2(C(C)C)CCC1(C)O2 (stereo not given)
logP [4]: 3.83

Compound: O=C1C=CCO1
logP [4]: -0.6

Compound: CNC(=O)c1ccccc1C(=O)c1ccccc1
logP [4]: 2.09

Compound: O=C1c2ccccc2C(=O)N1c1ccccc1
logP [4]: 2.4

Compound: Nc1ccc2cc3ccc(N)cc3nc2c1
logD ([4]; pH 12.0): 1.83

Compound: CC(=O)COc1ccccc1
logP [4]: 1.04

Compound: NCCCN
logD ([4]; pH 13.0): -1.43

Compound: NC(=O)CCOc1ccccc1
logP [4]: 0.8

Compound: CC(C)NC(C)(C)C
logD ([4]; pH 13.0): 1.56

Compound: CCN1CCCC1CNC(=O)c1cc(NS(N)(=O)=O)c(Cl)cc1OC (stereo not given)
logP: 2.66

Compound: COc1ccc(CC#N)cc1OC
logP [4]: 1.15

Compound: c1ccc(Cn2cccc2)cc1
logP: 2.71

Compound: Nc1ncc(Cc2ccccc2Cl)c(N)n1
logD ([4]; pH 13.0): 2.24

Compound: CCCSP(=S)(OCC)Oc1ccc(Cl)cc1Cl (stereo not given)
logP [4]: 4.92

Compound: O=c1c2ccccc2oc2ccccc12
logP [4]: 3.39

Compound: Nc1ccc2nc3ccccn3c2n1
logD ([4]; pH 7.4): 1.38

Compound: c1ccc(Cn2cccn2)cc1
logP [4]: 1.78

Compound: CC(C)SC(C)C
logP [4]: 2.84

Compound: O=C(OCCCc1cnc[nH]1)c1ccccc1
logP [4]: 2.64

Compound: CC(=O)Nc1cccc2cccnc12
logD ([4]; pH 7.4): 1.91

Compound: O=C(O)c1cc2ccccc2o1
logD ([4]; pH 1.0): 2.41

Compound: C1=COCCC1
logP [4]: 0.69

Compound: C=C(C)Cl
logP [4]: 2

Compound: BrC(Br)(Br)Br
logP [4]: 3.42

More lines, now with the values ahead:

logP: 3.84
Compound: OC1(c2ccc(Cl)cc2)CCN(CCCC2(c3ccc(F)cc3)OCCO2)CC1

logP: 0.78
Compound: O=C1NC(=O)[C@@]2(CCOc3ccc(F)cc32)N1

logP: 4.29
Compound: c1ccc(NCCCOc2cccc(CN3CCCCC3)c2)nc1

logP: 1.86
Compound: O=C(O)Cc1nn(Cc2nc3cc(F)ccc3s2)c(=O)c2ccccc12

logP: 2.98
Compound: Cc1cc2c(s1)Nc1ccc(F)cc1N=C2N1CCN(C)CC1

logP [2]: 3.3
Compound: CCC(=O)C(Cc1ccc(C)cc1)S(=O)(=O)c1ccc(C)cc1 (stereo not given)

logP: 2.68
Compound: O=C(O)Cc1nn(Cc2ccc(Br)cc2F)c(=O)c2ccccc12

logP: 3.3
Compound: OCCN1CCN(C2CC(c3ccc(F)cc3)c3ccc(F)cc32)CC1 (stereo not given)

logP: 3.91
Compound: CC1(C)CN(CCN2CCN(c3cccc(Cl)c3)C2=O)C1

logD ([1]; pH 2.1): 0.21
Compound: O=C(O)C[N+]1([O-])CCN(C(=O)Cn2c(=O)sc3ccc(Cl)cc32)CC1

logP: 3.8
Compound: CSc1ccc2c(c1)C(N1CCN(CCO)CC1)CC2c1ccc(F)cc1 (stereo not given)

logP: -0.21
Compound: N=C1C=CC(=C(c2ccc(N)cc2)c2ccc(N)cc2)C=C1

logP: 3.9
Compound: FC(F)(F)C(=NOCC1OCCO1)c1ccc(Cl)cc1

logP [2]: 2.69
Compound: CCC(=O)C(Cc1ccc(Cl)cc1)S(=O)(=O)c1ccccc1 (stereo not given)

logP: 4.09
Compound: OCCC1CCN(CC/C=C2\c3ccc(F)cc3Sc3ccc(C(F)(F)F)cc32)CC1

logP: 2.88
Compound: COc1ccc(S(N)(=O)=O)cc1C(=O)NC1CC2CCCC1N2Cc1ccccc1 (stereo not given)

logP: 3.57
Compound: Cc1ccc2c(c1)C(N1CCN(CCO)CC1)CC2c1ccc(F)cc1 (stereo not given)

logP: 2.95
Compound: OCCN1CCN(C2CC(c3ccc(F)cc3)c3ccccc32)CC1 (stereo not given)

logP: 4.47
Compound: OCCN1CCN(CCCC2c3ccc(F)cc3Sc3ccc(C(F)(F)F)cc32)CC1 (stereo not given)

logP [2]: 3.43
Compound: CCC(=O)C(Cc1ccc(Cl)cc1)S(=O)(=O)c1ccc(C)cc1 (stereo not given)

logP: 5.86
Compound: O=C1NCN(c2ccccc2)C12CCN(CCCC(c1ccc(F)cc1)c1ccc(F)cc1)CC2

logP: 4.18
Compound: O=c1[nH]c2ccccc2n1C1CCN(CCOc2ccccc2)CC1

logP [1]: 2.21
Compound: c1ccc2c(c1)OCCOCCOc1ccccc1OCCO2

logP [2]: 2.47
Compound: CCC(=O)C(Cc1ccc(OC)cc1)S(=O)(=O)c1ccc(C)cc1 (stereo not given)

logD ([4]; pH 1.0): 3.85
Compound: O=C(O)c1c2ccccc2cc2ccccc12

logP [4]: 2.31
Compound: CC(C(=O)O)c1ccc(N2C(=O)C3C4C=CCC3(C4)C2=O)cc1 (stereo not given)

logD ([1]; pH 7.4): 0.05
Compound: O=C(Cn1c(=O)sc2ccc(Cl)cc21)N1CC[N+]([O-])(CCO)CC1

logD ([4]; pH 7.4): 5.21
Compound: CC(C)Cn1c(=O)n(C)c(=O)c2[nH]c(CC(O)N3CCN(C(c4ccccc4)c4ccccc4)CC3)nc21 (stereo not given)

logD ([4]; pH 7.0): 2.1
Compound: CC1(CO)COC(Cn2cncn2)(c2ccc(Cl)cc2Cl)OC1 (stereo not given)
